The record followed here is patent US11597745B2, “β-modified phosphoric acid compound precursor, β-modified phosphoric acid compound, reaction inhibitor and medicine containing the same, and method for inhibiting reaction” (priority 2018, dated 2023).

One data set relates to HIV M41L/T215Y. Nature of the data set: Anti-HIV activity measurement, TZM-bl cells, luciferase. The note with it: Human immunodeficiency virus 1, TZM-bl, read-out: EC50 for HIV. In kind it is cell-based, HIV-1. As to the method:
(§1) TZM-bl cells were cultured in a medium in which fetal bovine serum (Japan Bio Serum) having a final concentration of 10% had been added into Dulbecco's modified Eagle's Medium (DMEM) (SIGMA/Cat. No. D5796), under the conditions of 37° C. and 5% CO2. TZM-bl cells were plated in a 96-well microplate (1.3×10^4 cells/100 μL DMEM+10% FBS). On the following day, a drug solution, and HIV-1 (NL4-3, 10 ng) were added to the culture medium in this order. After two days, […] of culture supernatant was removed, 100 μL of 1×Steady Glo (Promega/Cat. No. E2510) was added into the resultant medium, luciferase in 80 μL of scraped cell lysate was quantified with a dedicated plate (Coster/Cat. No. 3912) IESEL, VERITAS Microplate Luminometer (Promega), and the anti-HIV-1 activity (EC50) of the drug was calculated. Experiments were performed on multiple compounds by using various types of viruses. In Table (A), the “AZT” means azidothymidine, the “Lamivudine” means lamivudine, and the “Didanosine” means didanosine.

The test system of another data set is HIV M41L/T69SSG/T215Y. The data set is described as above. Type of data set: cell-based, HIV-1. The note with it: for EC50: Human immunodeficiency virus 1, TZM-bl, read-out: EC50 for HIV. How it is done:
as §1

Another data set deals with HIV M184V. The data set is described as above. In kind it is cell-based, HIV-1. The conditions noted are these: Human immunodeficiency virus 1, TZM-bl, read-out: EC50 for HIV. As to the method:
as §1

The test system of another data set is HIV-1 (NL4-3) WT. Described as above. Type of data set: cell-based. The note with it: for EC50: Human immunodeficiency virus 1, NL43, TZM-bl, read-out: EC50 for HIV. As to the method: as §1
The test system of data set [1] is HBV (genotype C) in EB-HBCe cells. In words: Anti-HBV activity: HBV DNA of viral particles in culture supernatant of EB-HBCe cells by qPCR. The conditions noted are these: FIG. 5; for anti-HBV activity (HBV DNA): various final concentrations, 9 days, activity higher at higher concentration. In kind it is cell-based, hepatitis B virus. How it is done:
A cell line EB-HBCe, which is derived from a human liver cancer cell HuH-7 and in which the HBV genome (genotype C) constantly replicates, was plated in a 24-well plate, respective compound were added at various final concentrations into the plate, and the cell line EB-HBCe was cultured for 9 days. During the culture, the medium was replaced with new one and the above compounds were added at the same concentration into the plate, every three days.
The culture supernatant was collected, the viral particles were precipitated by the addition of a PNE solution (8.45% PEG 6000, 0.445 M NaCl, 13 mM EDTA), and then the nucleic acids outside the particles were removed by the treatment with DNase I (TAKARA BIO INC.) and RNase A (TAKARA BIO INC.) at 37° C. for 1 hour. Further, after the overnight treatment with Proteinase K, the DNA was extracted with phenol/chloroform, and precipitated with ethanol. The precipitate was solubilized, and then the HBV DNA was quantitatively measured by using SYBR qPCR Mix Kit (TOYOBO CO., LTD.). In FIG. 5, the “SelenoA” indicates the results of addition of compound 13, and the “entecavir” indicates the result of addition of entecavir.
Background: In qPCR the cycle at which signal appears reflects the starting amount.

A further data set has as its system MT-4 cells. Nature of the data set: Cytotoxicity evaluation, MTT assay. Type of data set: cell-based. The conditions noted are these: comparison in words from Table 1 (B). How it is done:
(§2) In MTT assay, Celltiter 96 Non-radioactive Cell Proliferation Assay (Promega) was used. MT-4 cells were infected with HIV-1 NL4-3 at multiplicity of infection (MOI)=0.001. HIV-1-infected (37° C., 1-1.5 hours) or -uninfected MT-4 cells (2.5×10^5/ml, 100 μL) were aliquoted into a 96-well microplate (final DMSO concentration: 0.5%), and the culture was started at 37° C. and 5% CO2. On the 5th day of the culture, the culture supernatant (100 μL) was removed, 15 μL of dye solution (MTT reagent) was added into each well, and the cells were cultured in a CO2 incubator for 1 hour. Subsequently, 100 μL of solubilization solution/stop mix was added into each well, mixed sufficiently, and the obtained mixture was left to stand at 4° C. overnight. After returning the temperature of the plate to room temperature, DD570/690 was measured with a spectrophotometer (BIO-TEK ELx808, CC50).
Background: Tetrazolium dyes change colour on reduction, which living cells bring about.

Data set [2] in a line: Cytotoxicity evaluation, MTT assay. In kind it is cell-based. The conditions noted are these: human; MT-4 cells, MTT, 5th day of culture. As to the method:
as §2

Some results are limits rather than exact numbers.

Take `O=c1[nH]cnc2c1ncn2[C@H]1CC[C@@H](CO)O1` [Didanosine, didanosine, reference compound]: the EC50 (as a rule, the concentration that produces a half-maximal response) in the data set on HIV M41L/T215Y was 5600 nM; in the data set on HIV M41L/T69SSG/T215Y it was 17000 nM; with HIV M184V, 8300 nM; with HIV-1 (NL4-3) WT, 3200 nM.

Turning to `C[Se]C1[C@@H](O)[C@@H](COP(O)(=N[C@@H](C)C(=O)OC(C)C)Oc2ccccc2)O[C@H]1n1cnc2c(N)ncnc21` (some centres unmarked) [Pro SelenoA], the “anti-HBV activity, ranking among SelenoA, Pro SelenoA and Pro A” value in data set [1] (concentration of addition 10 μM) is “highest anti-HBV activity among these three kinds”. In data set [1], the “anti-HBV activity (HBV DNA)” value is given as “showed anti-HBV activity”. Also, the EC50 in the data set with HIV M41L/T215Y stood at 1300 nM; in the data set on HIV M41L/T69SSG/T215Y it was 1400 nM; with HIV M184V, 2000 nM; in the data set on HIV-1 (NL4-3) WT it was 980 nM. The “anti-HIV activity compared with AZT” value in the data set with HIV M41L/T69SSG/T215Y (HIV-type M41L/T69SSG/T215Y, comparison in words from Table 1 (A)) is on record as “more excellent anti-HIV activity”. In addition, the “toxicity compared with AZT” value in the data set on MT-4 cells is reported as “lower”. In data set [2], the CC50 (in general, the concentration that lowers cell viability or growth by half) at 5 day is above 100000 nM. Also, the “anti-HIV activity compared with Lamivudine and Didanosine” value with HIV-1 (NL4-3) WT (comparison in words from Table 1 (A), all virus types) is “higher anti-HIV activity”.

Regarding `CCCSSC1[C@@H](O)[C@@H](COP(O)(=N[C@@H](C)C(=O)OC(C)C)Oc2ccccc2)O[C@H]1n1cnc2c(N)ncnc21` (some centres unmarked) [Pro A], the “anti-HBV activity (HBV DNA)” value in data set [1] is on record as “showed anti-HBV activity”.

For `Nc1ncnc2c1ncn2[C@@H]1O[C@H](CO)[C@@H](O)[C@H]1[SeH]` [SelenoA, Seleno adenosine], in data set [1], the “anti-HBV activity (HBV DNA)” value was “showed anti-HBV activity”.

As to `Nc1ccn([C@@H]2CS[C@H](CO)O2)c(=O)n1` [Lamivudine, lamivudine, reference compound], the EC50 in the data set with HIV M41L/T215Y was 1700 nM; in the data set with HIV M41L/T69SSG/T215Y it was 24000 nM; in the data set with HIV M184V it was above 100000 nM; with HIV-1 (NL4-3) WT it was 1200 nM.
